Reference: PubChem BioAssay AID1626 (SRMLSC, 2009)

System: M. tuberculosis H37Rv growth inhibition
Test: M. tuberculosis H37Rv growth inhibitors, H37Rv strain (AID 1626)
Details: for IC90: measured here: IC90 against H37Rv; for CC50: measured here: Vero cell cytotoxicity

| SMILES | IC50 | IC90 | CC50 |
| --- | --- | --- | --- |
| CCOc1ccc2nc(NC(=O)c3ccccn3)sc2c1 | 1.36 µM | 3.07 µM | 15.1 µM |
| Cn1cc(CN2CCN(c3ccc(Cl)cn3)CC2)c(-c2ccccc2F)n1 |  | > 100 µM |  |
| Cc1cccc(C)c1OCC(=O)Nc1cccc(-c2nnc(-c3ccccc3)o2)c1 | 10.7 µM | > 100 µM | > 40 µM |
| Oc1cnn(-c2ccccc2)c1 |  | > 100 µM |  |
| CN(C)CCCn1c(SCC(=O)Nc2nc(-c3cccc(Br)c3)cs2)nc2ccccc2c1=O | 5.61 µM | 5.96 µM | 8.6 µM |
| Cc1cccc(N=Nc2c(N)n[nH]c2-c2ccc(Cl)cc2)c1 | 59.1 µM | > 100 µM |  |
| O=C(Nc1nnc(-c2ccccc2)o1)c1nc2ccccc2s1 | 6.13 µM | 13.6 µM | > 40 µM |
| CCn1c(NC(=O)c2ccccc2)nc2ccccc21 | 1.71 µM | 8.64 µM | > 40 µM |
| CCOC(=O)CSc1ncnc2c1cnn2-c1ccc(Cl)cc1 | 1.03 µM | > 100 µM |  |
| COc1ccc(N)c2c1C(=O)c1ccccc1C2=O | 17.5 µM | > 100 µM | > 40 µM |
| Cc1csc(NC(=O)c2cc([N+](=O)[O-])cc([N+](=O)[O-])c2)n1 | 11.1 µM | 15.9 µM | > 40 µM |
| CCOC(=O)c1sc(NC(=O)CNCc2ccccn2)c(C(=O)OCC)c1C | 2.77 µM | 4.22 µM | > 40 µM |
| Cc1cccc(-c2noc(-c3cc4ccccc4oc3=O)n2)c1 | 1.28 µM | > 100 µM |  |
| CCOC(=O)C(C)Sc1ncnc2c1nnn2-c1ccc(F)cc1 (stereo unspecified) | 2.47 µM | 21.6 µM |  |
| Cc1[nH]nc2c1C(c1ccc(-c3ccc(Cl)cc3)o1)C(C#N)=C(N)O2 (stereo unspecified) | 0.749 µM | 91.5 µM | > 40 µM |
| Cc1ccc(NC(=O)/C=C/c2ccc([N+](=O)[O-])s2)c(C)c1 | 1.79 µM | 4.42 µM | 19.5 µM |
| Cc1ccc(Oc2cc(NC(=O)CCCn3nc(C)c([N+](=O)[O-])c3C)cc([N+](=O)[O-])c2)cc1 | 2.33 µM | 3.34 µM | > 40 µM |
| Cc1cc(NC2CCCCC2)nc(NCc2ccccc2)n1 | 10.3 µM | 13.2 µM | 18.2 µM |
| Cc1ccccc1Nc1c(-c2ccccn2)nc2c(C)cccn12 | 20.5 µM | > 100 µM | 29 µM |
| CCOC(=O)Cc1ccc(NC(=O)c2ccc(C(C)(C)C)cc2)cc1 | 35.6 µM | > 100 µM | > 40 µM |
| O=c1c(O)c(-c2cccs2)oc2ccc(Cl)cc12 | 9.53 µM | > 100 µM | > 40 µM |
| CCOC(=O)Cc1csc(NC(=O)c2csc3c2CCCC3)n1 | 9.18 µM | 12.5 µM | > 40 µM |

| SMILES | IC50 | IC90 | CC50 |
| --- | --- | --- | --- |
| Nc1nc(-c2cccc(Br)c2)cs1 | 23.8 µM | > 100 µM |  |
| [O-][n+]1onc2c3cc(-c4ccccc4)nnc3ccc21 | < 0.195 µM | 0.443 µM |  |
| O=c1oc2ccccc2nc1/C=C(\O)c1ccccc1 | 6.59 µM | > 100 µM |  |
| O=C(Nc1ccc(CN2CCOCC2)cc1)c1ccc(-c2ccc(Br)cc2)o1 | 7.09 µM | 13.2 µM | 32 µM |
| CC(C)c1nnc(NC(=O)c2c(O)c3cccc4c3n(c2=O)CCC4)s1 | 0.604 µM | 0.731 µM | 6.5 µM |
| CCCCNC(=O)COC(=O)c1cc(F)c(F)cc1Cl | 6.16 µM | > 100 µM |  |
| COc1ccc(N)cc1-n1cnnn1 |  | > 100 µM |  |
| O=C(COC(=O)c1ccc(Cl)s1)c1ccc[nH]1 | 8.14 µM | 16.7 µM |  |
| CCCOC(=O)c1ccc(NC(=O)/C=C/c2cccs2)cc1 | 4.12 µM | 21.8 µM |  |
| CC(C)COC(=O)c1ccc2c(c1O)C(=O)c1ccccc1C2=O | 2.51 µM | 4.11 µM | 27.8 µM |
| CCOC(=O)N1CCN=C1SCc1ccc(C(F)(F)F)cc1 |  | > 100 µM |  |
| Cc1nc(SCC(=O)Nc2ccc(OCc3ccccc3)cc2)n[nH]1 | 0.406 µM | > 100 µM |  |
| CCOc1ccc(NC(=O)NC23CC4CC(CC(C4)C2)C3)cc1 | 2.58 µM | > 100 µM |  |
| O=Cc1ccc2noc(-c3ccc(F)cc3)c2c1 |  | > 100 µM |  |
| O=C1N=C(N2CCOCC2)S/C1=C/c1ccc(-c2ccc(F)cc2)o1 |  | > 100 µM |  |
| Cc1ccc(Cn2c(NC(=O)c3ccco3)nc3ccccc32)cc1 | 4.08 µM | > 100 µM | > 40 µM |
| Oc1cccc2ccc(/C=C/c3ccc(Br)s3)nc12 | 2.56 µM | > 100 µM | 32.4 µM |
| O=C(NC1CCCCC1)C(c1ccc2ncccc2c1)N(Cc1ccc2c(c1)OCO2)C(=O)c1ccc2c(c1)OCCO2 (stereo unspecified) | 12.7 µM | > 100 µM | > 40 µM |
| Cc1c(Cc2ccccc2)c(=O)n2c([nH]c3ccccc32)c1C#N | 3.04 µM | > 100 µM | 13 µM |
| Nc1c2c(nc3ccc(Br)cc13)N(C1CCCCC1)CC2 | 8.28 µM | 11.1 µM | > 40 µM |
| CCOC(=O)C(C(=O)OCC)C1N=C(N)N=C2Oc3ccccc3N21 (stereo unspecified) | 17.1 µM | 36.7 µM |  |
| Cc1ccc(C)c(-c2csc(NC(=O)c3cnccn3)n2)c1 | 2.6 µM | > 100 µM | > 40 µM |

| SMILES | IC50 | IC90 | CC50 |
| --- | --- | --- | --- |
| FC(F)(F)c1ccc(N2CCOCC2)c(Nc2nc3ccccc3n3cnnc23)c1 | 8.57 µM | 18.3 µM | 24.5 µM |
| CC(NC(=O)c1ccc([N+](=O)[O-])cc1[N+](=O)[O-])c1ccc(-c2ccccc2)cc1 (stereo unspecified) | 2.51 µM | > 100 µM | > 40 µM |
| CCN(CC)c1ccc(N=Cc2c(C)[nH]c3ccccc23)cc1 | 22.1 µM | 35.1 µM | > 40 µM |
| CC1=CC(C)(C)Nc2ccc(OC(=O)c3ccco3)cc21 | 54.4 µM | > 100 µM | > 40 µM |
| CN1CCN(C2=Cc3ccccc3Sc3cc(F)c(Cl)cc32)CC1 | 11.6 µM | 13.2 µM | 36.4 µM |
| COC(=O)Cc1ccc(NC(=O)c2ccc(Br)o2)cc1 |  | > 100 µM |  |
| CCOC(=O)c1cccc(NC(=O)CCc2nc(-c3ccc(C)cc3)no2)c1 | 30.1 µM | > 100 µM |  |
| COc1ccc(Cn2c(SCc3ccccc3C)nc3cc(OC)c(OC)cc3c2=N)cc1 | 2.24 µM | 3.02 µM | 6.78 µM |
| COCCN=C1Sc2nc3ccc(C)cc3cc2CN1Cc1cccs1 | 10.6 µM | 13.8 µM |  |
| COc1ccc(NC(C)c2cc(Cl)ccc2O)cc1 (stereo unspecified) |  | > 100 µM |  |
| CCCCc1ccc(NC(=O)CC(C)C)cc1 | 6.02 µM | > 100 µM |  |
| N=C(N)SCc1cn(-c2ccccc2)nc1-c1ccc(Br)cc1 | 6.8 µM | 9.39 µM | 14.6 µM |
| O=C(COc1ccc2c(C(F)(F)F)cc(=O)oc2c1)NCc1cccs1 | 14.8 µM | > 100 µM |  |
| CC[C@H]1CC2CN3CCc4c([nH]c5c([C@H]6C[C@H]7[C@H](CC)CN(C)[C@@H](Cc8c6[nH]c6ccccc86)[C@H]7C(=O)OC)c(OC)ccc45)C(C(=O)OC)(C2)C13 | 5.85 µM | 7.6 µM | 20.8 µM |
| COc1ccc(N2C(=O)C(F)(F)C2c2ccccc2F)cc1 (stereo unspecified) | 5.79 µM | 12.1 µM |  |
| Nc1ncnc(Oc2cccc3cccnc23)c1[N+](=O)[O-] | 6.19 µM | 6.94 µM | 37.1 µM |
| C[n+]1c2n(c3ccccc31)N=C(c1cc(C(C)(C)C)c(O)c(C(C)(C)C)c1)CS2 | 2.54 µM | 3.14 µM | > 40 µM |
| O=C(COc1ccc(Cl)cc1)Nc1ccc2c(c1)CCC2 | 12.6 µM | > 100 µM |  |
| COC(=O)CSc1ccc(-c2nc3ccc(C)cc3[nH]2)cn1 | 1.95 µM | 3.39 µM |  |
| COc1ccc2nc(NC(=O)c3cnccn3)sc2c1 |  |  | > 40 µM |
| Cc1nnc(NC(=O)c2ccc3ccccc3c2)o1 | 0.719 µM | 1.46 µM | > 40 µM |
| COc1cccc(CNCCc2c[nH]c3ccccc23)c1OCc1ccccc1F | 7.08 µM | 11.3 µM | 14.4 µM |

| SMILES | IC50 | IC90 | CC50 |
| --- | --- | --- | --- |
| CCOC(=O)N1CCC(N2CCCC(C(=O)c3ccc4cc(OC)ccc4c3)C2)CC1 (stereo unspecified) | 8.9 µM | 25.1 µM | > 40 µM |
| CCOC(=O)/C=C/C(=O)Nc1nccs1 |  | > 100 µM |  |
| O=C(O)/C=C/C(=O)Nc1ccc(-n2nccc2C(F)(F)F)cc1 |  | > 100 µM |  |
| CCN(CC)c1ccc(CNc2nc3ccccc3n2CCN2CCCCC2)cc1 | 36.7 µM | 43.8 µM | > 40 µM |
| Cc1c(C(=O)Oc2cccc3cccnc23)oc2ccccc12 | 3.04 µM | 3.29 µM | 34.6 µM |
| COc1ccc(-c2nn(-c3ccccc3)cc2/C=N/N=C(N)N)cc1OC | 13.3 µM | 22.6 µM | 32.3 µM |
| Cn1c(NC(=O)c2ccccc2NC(=O)C(C)(C)C)nc2ccccc21 |  |  | > 40 µM |
| CCOc1[nH]n(-c2ccccc2)c(=O)c1C=Nc1ccc(OC)cc1 |  | > 100 µM |  |
| O=C(O)c1ccc(N2C(=O)/C(=C/c3ccc(-c4ccc([N+](=O)[O-])cc4)o3)C=C2c2ccccc2)cc1 | 19 µM | 26.5 µM | 20.1 µM |
| Cc1ccc(NC(=O)C2CCCCC2C(=O)O)cc1Cl (stereo unspecified) |  | > 100 µM |  |
| CC/C(=C(\c1ccc(O)cc1)c1ccc(OCCN(C)C)cc1)c1ccccc1 | 8.76 µM | 12.3 µM | 14.1 µM |
| CCCCCCCCn1cnc2c(N)c(C)c(C)cc21 | 15.9 µM | 21.4 µM |  |
| O=C(CSc1nc2ccccc2o1)Nc1nc(-c2ccccc2)cs1 | 28.1 µM | > 100 µM |  |
| CC1CCCN(c2ccc([N+](=O)[O-])s2)C1 (stereo unspecified) | 5.81 µM | 6.36 µM |  |
| COc1ccc(NCN2C(=O)CCC2=O)cc1 |  | > 100 µM |  |
| COc1cc2c(cc1NCc1ccc3c(c1)OCO3)oc1ccccc12 | 89.1 µM | > 100 µM |  |
| COC(=O)/C(=C1/Oc2cc(C)oc(=O)c2S1)C(F)(F)F | 0.698 µM | 23.8 µM | 6.33 µM |
| CSc1ccc(NC(=O)N2CC=C(n3c(=O)[nH]c4ccccc43)CC2)cc1 |  |  | > 40 µM |
| Cc1ccc(Nc2nnc(SCC(=O)Nc3cccnc3Cl)s2)cc1C | 1.63 µM | 3.5 µM |  |
| COc1cnc(-c2ccccn2)nc1Oc1ccc(F)cc1F | 19.1 µM | > 100 µM | > 40 µM |
